Molecules are shown by their SMILES. Values after ≈ are worked out from the molar mass of the structure shown.

Results on 2 compounds are retold here after paper PMC12384620, “Hit-to-Lead Studies of Pyrazinylpiperazines against Visceral Leishmaniasis: Pharmacokinetic Profile and In Vivo Efficacy of Potent Compounds against Leishmania infantum” (ACS Pharmacology & Translational Science, 2025).

Data set [1] can be described thus: Experimental lipophilicity elog(D) at pH 7.4 by retention time. To be noted: pH 7.4, chromatographic. Format: physicochemical. The method, then:
The analysis was performed using LC-MS/MS (liquid chromatography-tandem mass spectrometry). The chromatography system used was a Prominence UFLC (Shimadzu Corporation, Kyoto, Japan), interfaced with a LCMS-8045 triple quadrupole mass spectrometer (Shimadzu Corporation, Kyoto, Japan) equipped with an electrospray ionization source (ESI).
For the determination of the distribution coefficient (elog(D)), a methodology based on the retention time of molecules in the stationary phase was used. The chromatogram was achieved on a Supelco Ascentis express RP amide HPLC column (5 cm x 2.1 mm, […]), using 5% methanol in 10 mM ammonium acetate pH 7.4 (A) and 100% methanol (B) as mobile phases. The mobile phase was eluted in binary gradient mode, as follows: 0 min: 95% A; 0.3 min: 100% A; 5.2 min: 0% A; 5.6 min: 0% A; 5.8 min: 100% A; 7.0 min: 100% A. The total run time was 7 min, and 5 μL of each sample were injected. The solutions of tested compounds were prepared at a concentration of 1.0 mg/mL in compound by adding the stock solution to a (1:1) mix of mobile phases A:B (internal standard at 200 nM), and the DMSO concentration was lower than 2%. […]

Data set [2] is described as follows: Kinetic solubility. The class given is physicochemical. To be noted: PBS, 25 °C, kinetic from dmso stock. The method, then: The analysis was performed using LC-MS/MS (liquid chromatography-tandem mass spectrometry). The LC-MS/MS system used consisted of a Prominence UFLC (Shimadzu Corporation, Kyoto, Japan) chromatography system, interfaced with a LCMS-8045 triple quadrupole mass spectrometer (Shimadzu Corporation, Kyoto, Japan) equipped with an electrospray ionization source (ESI).
PBS pH 7.4 or 2.0 (final concentration of 250 μM) was added to each well of the plates, and the DMSO concentration was kept lower than 2.5%. The plates were sealed and shaken for 24 h (200 rpm/25 °C). The precipitates on the incubation plate were removed by centrifugation (15 min/3000 rpm/25 °C), and the supernatant fractions were quantified by LC-MS/MS. An intermediate standard solution diluted at 0.5 mM in acetonitrile:water (1:1) was prepared from a 10 mM standard solution. A calibration curve was prepared for each of the test compounds and controls by diluting several times the intermediate standard solution to reach the desired concentrations of 50, 40, 20, 2, and 1 μM. The resulting equation for the calibration curve (y = mx + b) was used to calculate the experimental concentration values for the compounds. The chromatogram for analysis was achieved on a Supelco Ascentis express C18 column (3 cm x 2.1 mm, […]), using water +0.05% formic acid (A) and acetonitrile +0.05% formic acid (B) as mobile phases. […]

For data set [3], the system named is L. infantum::tdTomato intracellular amastigotes. The data set is described as follows: Synergism between 2 and Sb^III against intracellular L. infantum amastigotes. Format: cell-based, Leishmania infantum. The method, then: Cells derived from the human monocytic strain THP-1 were cultured in complete Rowell Park Memorial Institute (RPMI)-1640 medium (supplemented with 10% fetal bovine serum, 100 U/mL penicillin, and 100 μg/mL streptomycin). Monocytes were differentiated into macrophages by the addition of 20 ng/mL phorbol myristate acetate (PMA). After 72 h, the macrophages (5 × 10^4), in black 96-well microtiter plates (Corning Incorporated, Corning, NY), were infected with Leishmania (Leishmania) infantum (MHOM/BR/1974/PP75) promastigotes expressing red fluorescence protein on the second day of the stationary phase (20 parasites per macrophage) for 4 h. […] To investigate the possibility of synergism between Sb^III and compound 2, […] different concentrations of these drugs were used (1.0, 0.5, 0.2, 0.1, and 0.05 μg/mL), the solutions of Sb^III and 2 being prepared and diluted the day of the assay. The compounds were tested separately and in combination. […] The EC50 values were determined by nonlinear regression using a Variable slope model (log(concentration) vs growth inhibition) with the GraphPadPrism v8.2.0 (CA, USA) software. By normalizing the data as a fractional response, it was possible to perform the calculation using a Bayesian model. The results were compared to each other to determine whether the combination of compounds has a synergistic, antagonistic or additive effect. Controls with uninfected cells, untreated infected cells, infected cells treated with amphotericin B at 0.25 μM (positive control) or DMSO 1% were used. Quadruplicates were run on the same plate, and the experiments were repeated at least once.

Data set [4] concerns L. infantum promastigotes. The data set is described as follows: Flow cytometric cell cycle analysis (PI). Format: cell-based, Leishmania infantum. The note with it: 24 h, 0.5x, 1x, 2x IC50, PI. The method, then:
Then, the cells were collected, washed twice with 1 × PBS, and fixed in 70% ethanol at 4 °C for 24 h. The fixed parasites were then washed with 1 × PBS and the pellet was treated with 500 μL of RNase A (20 mg/mL) and incubated at 37 °C for 1 h. Subsequently, the parasites were stained with 10 μg/mL propidium iodide (PI) in the dark for 20 min. Cell cycle distribution, determining the percentage of cells in G0, G1, S, and G2/M phases, was analyzed using an Accuri C5 BD flow cytometer. The histograms presented are representative of results obtained from three independent experiments.
A general note: A flow cytometer gives signals particle by particle.

Data set [5] concerns L. infantum promastigotes. The data set is described as follows: Reactive oxygen species production assay (H2DCFDA). Format: cell-based, Leishmania infantum. To be noted: at IC50 against promastigotes, 24 h; standard 100 μM H2O2. The procedure: The fluorescent dye H2DCFDA was employed to evaluate ROS production. […] After treatment, the parasites were harvested, washed three times with 1 × PBS, and incubated with 10 μM H2DCFDA dye in […] of 1 × PBS in the dark at room temperature for 30 min. Subsequently, the cells were centrifugated, resuspended in ice-cold PBS and kept at 0 °C until reading on a SpectraMax Gemini XPS/EM microplate reader. The median fluorescence intensity (MIF) was measured on a population of at least ten thousand cells and the data was further analyzed using Excel 2021.

Data set [6] concerns glycogen synthase kinase-3 (GSK-3). Also on record: method as in earlier work. To be noted: ref previous screening of potential GSK-3 inhibitors among the Leishbox; cited from earlier work.

With `O=C(c1ccc(O)cc1)N1CCN(c2cnccn2)CC1` [Compound 2, (4-Hydroxyphenyl)(4-(pyrazin-2-yl)piperazin-1-yl)methanone], the “elog(D)” value in data set [1] was found to be 1.64. Also, the kinetic solubility (as a rule, solubility judged after dilution from a stock solution rather than from solid) at 24 h was 125 µM (≈ 35.6 µg/mL) in data set [2] (aqueous buffer, pH 2.0) and above 153 µM in data set [2] (pH 7.4, aqueous buffer). The IC50 (as a rule, the concentration at which inhibition is half-maximal) in data set [3] (Leishmania infantum, 72 h, read-out: IC50 against intracellular amastigotes of L. infantum) stood at 3.1 ± 1.3 µM. Besides, the “effect of the combination of 2 and Sb^III (Bayesian model)” value in data set [3] (combination of 2 with Sb^III, in vitro against L. infantum) is given as “antagonistic”. In data set [4], the “effect on cell cycle progression” value was “G0/G1 phase cell cycle arrest”. The ROS production result in data set [5] is reported as “comparable to that of the standard H2O2”.

In the case of `O=C(c1ccc(O)c(Cl)c1)N1CCN(c2cnccn2)CC1` [Compound 1, (3-Chloro-4-hydroxyphenyl)(4-(pyrazin-2-yl)piperazin-1-yl)methanone], the GSK-3 inhibition entry in data set [6] was “did not inhibit”.
